{"source": "patent US12576033B2", "about": "“Spray-dried formulation of a pyridazinone TRPC5 inhibitor” (GFB (ABC), LLC, priority 2019, dated 2026)", "type_in_all_cases": "physicochemical", "key": {"[1]": {"test": "MDSC thermal analysis (Tg)", "method": "MDSC was performed using a TA Instruments Discovery DSC2500 differential scanning calorimeter equipped with a TA instruments Refrigerated Cooling System 90. MDSC was used to measure thermodynamic events and characteristics of Compound 1 API and subsequent SDIs. Events observed include the glass transition temperature (Tg), cold crystallization (Tc, defined as a crystallization event at a temperature lower than the melt temperature) and melting temperature (Tm). SDI samples were placed in non-hermetic aluminum pans and heated at a constant rate of 2.0° C./min over a 0-200° C. temperature range. The system was purged by nitrogen flow at 50 mL/min to ensure inert atmosphere through the course of measurement. […] The resulting amorphous API was analyzed by modulated DSC up to 265° C. […]\nThermal properties including melting temperature (Tm), glass transition temperature (Tg) and crystallization temperature (Tc) of Compound 1 crystalline Form H (anhydrous/solvate free) were measured by MDSC. […] The Tg was measured via a melt-quench technique, heating Compound 1 past its melting temperature and rapidly cooled in liquid nitrogen to trap the molten material in an amorphous state. The resulting sample was analyzed by MDSC and a Tg of 130° C. was observed (FIGS. 1A-B/Table 9) with no observed crystallization peaks or clear melting events in the subsequent amorphous ramp up to 275° C. […]"}, "[2]": {"test": "Visual solubility in common spray drying solvents", "method": "Organic solubility of Compound 1 was determined visually in common spray drying solvents (Table 10) and Compound 1 lot AC5313-058P1 was utilized. […] When removed from heat API crashes out after 5 minutes. Solution (% w/w) was then prepared at 2.0% Compound 1 and heated to 40° C. where solids dissolved immediately. The 2.0% solution was then removed from heat where API appeared to crash out after ˜2 hours."}, "[3]": {"test": "Two stage gastric transfer non-sink dissolution test (0.1N HCl/FaSSIF)", "method": "In-vitro drug dissolution performance for each SDI is evaluated by Patheon's two stage ‘gastric transfer’ non-sink dissolution test (Table 8), which simulates pH and bile salt concentrations for both gastric and intestinal exposure in a simple to perform assay. Pre-weighed SDI powder is briefly suspended in media (e.g. by 10 sec vortex mixing with 4.0 mL media) and transferred to a pre-heated (37° C.) volume of 50 mL of 0.1N HCl(aq) (simulated gastric fluid or SGF, pH˜1.0, without pepsin or bile salts), in a USP Type 2 mini-vessel (100 mL total vessel volume) while stirring (paddles) at 100 rpm. After 30 minutes of gastric pH exposure, an equal volume of PBS buffered, 2× concentrated fasted-state simulated intestinal fluid (FaSSIF) is added to the SGF, resulting in a final pH of 6.8 in FaSSIF (100 mM PBS containing 2.24 mg/mL SIF powder (original) (Biorelevant Inc.) in a total volume of 100 mL. Aliquiots (1.0 mL) of dissolution media are taken at selected time-points before and after the simulated gastric transfer, spun-down (13000 rpm) to pellet out undissolved solids, and the supernatant sampled and further diluted in an appropriate diluent to determine API total drug concentration (e.g. free and colloidal/polymer-bound drug in solution) utilizing a suitable HPLC method. Additional centrifugation and filtration was performed using 10K molecular weight cutoff filters to remove polymer bound aggregates and colloids. The resulting filtrate of free drug consists of drug in solution and micelles. The volume of FaSSIF added is adjusted to account for the sampling volume removed prior to gastric transfer (typically 4×1.0 mL). Initial Compound 1 API measurements and SDI dissolution samples were determined utilizing HPLC.\nThe dissolution performance of the SDI material and crystalline Compound 1 was tested in Patheon's non-sink dissolution test (FIG. 6 and Table 15). The dissolution test is used to measure the supersaturation of drug above the bulk crystalline Compound 1 solubility in biorelevant intestinal media (FaSSIF) after 30 minutes exposure to a low-pH environment. […]"}, "[4]": {"settings": "60:40 DCM:Methanol, clear solution when heated to 40° C."}, "[5]": {"settings": "80:20 DCM:Methanol, clear solution when heated to 40° C."}, "[6]": {"settings": "90:10 DCM:Methanol, clear solution when heated to 40° C."}}}
{"smiles": "O=c1[nH]ncc(N2CCc3c(ncnc3Oc3ccc(F)cc3C(F)(F)F)C2)c1Cl", "note": "[Compound 1, 4-chloro-5-(4-(4-fluoro-2-(trifluoromethyl)phenoxy)-5,8-dihydropyrido[3,4-d]pyrimidin-7(6H)-yl)pyridazin-3(2H)-one]", "values": [{"measurement": "Tg", "setting": "[1]; amorphous API by melt-quench, MDSC", "result": 130, "unit": "°C"}, {"measurement": "Tm/Tg ratio", "setting": "[1]; indicating moderate physical stability", "result": 1.32}, {"measurement": "Compound 1 Visual Solubility", "setting": "[2]; 50:50 DCM:Methanol", "result": ">1.0", "unit": "wt .%"}, {"measurement": "Observation (visual solubility)", "setting": "[2]; 50:50 DCM:Methanol", "result": "Insoluble"}, {"measurement": "Compound 1 Visual Solubility", "setting": "[2]; [4]", "result": "2.0-3.0 wt .%"}, {"measurement": "Observation (visual solubility)", "setting": "[2]; [4]", "result": "Soluble^1"}, {"measurement": "Compound 1 Visual Solubility", "setting": "[2]; [5]", "result": "1.0-1.5 wt .%"}, {"measurement": "Observation (visual solubility)", "setting": "[2]; [5]", "result": "Soluble^1"}, {"measurement": "Compound 1 Visual Solubility", "setting": "[2]; [6]", "result": "1.0-1.5 wt .%"}, {"measurement": "Observation (visual solubility)", "setting": "[2]; [6]", "result": "Soluble^1"}, {"measurement": "Compound 1 Visual Solubility", "setting": "[2]; 95:5 Acetone:Water", "result": ">1.0", "unit": "wt .%"}, {"measurement": "Observation (visual solubility)", "setting": "[2]; 95:5 Acetone:Water", "result": "Insoluble"}, {"measurement": "Compound 1 Visual Solubility", "setting": "[2]; Acetone", "result": ">1.0", "unit": "wt .%"}, {"measurement": "Observation (visual solubility)", "setting": "[2]; Acetone", "result": "Insoluble"}, {"measurement": "Compound 1 Visual Solubility", "setting": "[2]; Methanol", "result": ">1.0", "unit": "wt .%"}, {"measurement": "Observation (visual solubility)", "setting": "[2]; Methanol", "result": "Insoluble"}, {"measurement": "Compound 1 Visual Solubility", "setting": "[2]; Methlyene Chloride (DCM)", "result": ">1.0", "unit": "wt .%"}, {"measurement": "Observation (visual solubility)", "setting": "[2]; Methlyene Chloride (DCM)", "result": "Insoluble"}, {"measurement": "Compound 1 Visual Solubility", "setting": "[2]; Methyl Ethyl Ketone (MEK)", "result": ">1.0", "unit": "wt .%"}, {"measurement": "Observation (visual solubility)", "setting": "[2]; Methyl Ethyl Ketone (MEK)", "result": "Insoluble"}, {"measurement": "Compound 1 Visual Solubility", "setting": "[2]; Tetrahydrofuran (THF)", "result": ">1.0", "unit": "wt .%"}, {"measurement": "Observation (visual solubility)", "setting": "[2]; Tetrahydrofuran (THF)", "result": "Insoluble"}, {"measurement": "maximum active loading in solution", "setting": "[2]; heated (40° C.) 60:40 DCM:Methanol, % w/w", "result": 2.0, "unit": "%"}, {"measurement": "Total Drug AUC35-210 FaSSIF", "setting": "[3]; area under the curve after transfer to FaSSIF from 35 to 210 minutes", "result": 600, "unit": "min * μgA/mL"}, {"measurement": "Total Drug C210", "setting": "[3]; drug concentration at 180 minutes after transfer to FaSSIF", "result": 3.5, "unit": "μgA/mL"}, {"measurement": "Increase in AUC over API AUC", "setting": "[3]; non-sink dissolution, FaSSIF", "result": 0.4}]}
